Data as given in article PMC4503722, “Novel Phenotypic Outcomes Identified for a Public Collection of Approved Drugs from a Publicly Accessible Panel of Assays” (PLoS ONE, 2015).
Read-outs that look alike come from different tables or passages of the source.

Assays:
Assay in all cases: cells
HCT116 = type: cell-based
SNU-C1 = type: cell-based
NCI-H716 cells = type: cell-based, Human
[1] = tested on: HCT116 cells treated with a GSK3β inhibitor; type: cell-based
SW480 = type: cell-based
INS-1E cells = type: cell-based, rat
HeLa cells = type: cell-based; conditions: HeLa, read-out: CellCycle G2/M
DLD-1 = type: cell-based
HT-29 = type: cell-based
[2] = tested on: nuclear β-catenin in C2C12 cells; type: cell-based
Colo320 = type: cell-based
[3] = tested on: endothelial tube formation in co-cultures of ECFCs and ADSCs treated with VEGF; type: cell-based, human
RKO = type: cell-based
[4] = Homo sapiens, SNU-C1, basal, SNU-C1, read-out: Basal_Viability ATP SNU-C1
[5] = Homo sapiens, NCI-H716; read-out: GLP 1 Secretion
[6] = Homo sapiens; basal; RKO; read-out: Basal_Viability ATP RKO
[7] = Homo sapiens, SW480, basal, SW480, read-out: Basal_Viability ATP SW480
[8] = Rattus norvegicus, INS-1E; read-out: Insulin Secretion
[9] = Homo sapiens, S2 Table, 20 = no response at highest concentration
[10] = Homo sapiens, DLD-1, basal, DLD-1, read-out: Basal_Viability ATP DLD-1
[11] = Homo sapiens, basal, HT-29, read-out: Basal_Viability ATP HT-29
[12] = Mus musculus, C2C12, S2 Table, module primary assay, 20 / 20.1 codes per legend, read-out: Wnt Pathway
[13] = Homo sapiens; basal; Colo 320; read-out: Basal_Viability ATP Colo 320
[14] = Homo sapiens, SNU-C1, read-out: Basal_Viability ATP SNU-C1
[15] = Homo sapiens, RKO, read-out: Basal_Viability ATP RKO
[16] = Homo sapiens, SW480, read-out: Basal_Viability ATP SW480
[17] = Homo sapiens, COLO 320, read-out: Basal_Viability ATP Colo 320
[18] = Homo sapiens; IC50 / EC50; NCI-H716; read-out: GLP 1 Secretion
[19] = Rattus norvegicus; IC50 / EC50; INS-1E; read-out: Insulin Secretion
[20] = Homo sapiens, HT-29, read-out: Basal_Viability ATP HT-29
[21] = Mus musculus, C2C12, IC50 / EC50, C2C12 beta-catenin translocation, read-out: Wnt Pathway
[22] = Homo sapiens, HCT-116, HCT116 pretreated with GSK3b inhibitor, read-out: GSK3b inh pretreated_Viability ATP HCT116
[23] = Homo sapiens, SNU-C1, 72 h, Table 2, 72 h, Cell TiterGlo, non-adherent, 20 coded, read-out: SNU-C1 viab. IC50
[24] = Homo sapiens, NCI-H716; read-out: GLP1 sec. EC50
[25] = Homo sapiens, RKO; Table 2; 72 h, Cell TiterGlo, non-adherent; 20 coded; read-out: RKO viab. IC50
[26] = Rattus norvegicus, INS-1E; read-out: Ins. sec. EC50
[27] = Homo sapiens, DLD-1, 72 h, Table 2, 72 h, Cell TiterGlo, non-adherent, 20 coded, read-out: DLD-1 viab. IC50
[28] = Homo sapiens, HT-29, Table 2, 72 h, Cell TiterGlo, non-adherent, 20 coded, read-out: HT-29 viab. IC50
[29] = Mus musculus, C2C12, Table 2, C2C12, […], 20 / 20.1 coded, read-out: Wnt pot. EC50
[30] = Homo sapiens, COLO 320; Table 2; 72 h, Cell TiterGlo, non-adherent; 20 coded; read-out: Colo320 viab. IC50

## Cc1nc2ccccc2n1Cc1ccc(Cl)cc1 [1-P-chlorobenzyl-2-methylbenzimidazole]
HCT116; basal, read-out: Basal_Viability ATP HCT116
  IC50: 1.22 µM
SNU-C1; basal, read-out: Basal_Viability ATP SNU-C1
  IC50: > 20 µM
NCI-H716 cells; IC50 / EC50; NCI-H716; read-out: GLP 1 Secretion
  EC50: > 10 µM
[1]; GSK3b inhibitor pretreated, read-out: GSK3b inh pretreated_Viability ATP HCT116
  IC50: 12 µM
SW480; basal, read-out: Basal_Viability ATP SW480
  IC50: 5.33 µM
INS-1E cells; IC50 / EC50; INS-1E; read-out: Insulin Secretion
  EC50: > 10 µM
HeLa cells; IC50 / EC50
  EC50: > 10 µM
DLD-1; basal, read-out: Basal_Viability ATP DLD-1
  IC50: > 20 µM
HT-29; basal, read-out: Basal_Viability ATP HT-29
  IC50: > 20 µM
[2]; IC50 / EC50, C2C12 beta-catenin translocation, read-out: Wnt Pathway
  EC50: > 10 µM
Colo320; basal; read-out: Basal_Viability ATP Colo 320
  IC50: 15.2 µM
[3]; IC50 / EC50; endothelial tube area, ADSC/ECFC co-culture; read-out: Anti-Angiogenesis
  IC50: 7.38 µM

## O=c1[nH]cc(F)c(=O)[nH]1 [Fluorouracil]
SNU-C1; [4]
  IC50: > 20 µM
NCI-H716 cells; [5]
  EC50: > 10 µM
RKO; [6]
  IC50: > 20 µM
SW480; [7]
  IC50: > 20 µM
INS-1E cells; [8]
  EC50: > 10 µM
HeLa cells; [9]
  EC50: > 10 µM
DLD-1; [10]
  IC50: > 20 µM
HT-29; [11]
  IC50: > 20 µM
[2]; [12]
  EC50: > 10 µM
Colo320; [13]
  IC50: > 20 µM
[3]; Homo sapiens; read-out: Anti-Angiogenesis
  IC50: > 10 µM

## N=C(N)NN=C(/C=C/c1ccc([N+](=O)[O-])o1)/C=C/c1ccc([N+](=O)[O-])o1 [Nitrovin]
HCT116; basal, HCT116, read-out: Basal_Viability ATP HCT116
  IC50: 0.136 µM
SNU-C1; basal, SNU-C1, read-out: Basal_Viability ATP SNU-C1
  IC50: 1.35 µM
NCI-H716 cells; S2 Table; module primary assay; 20 / 20.1 codes per legend; read-out: GLP 1 Secretion
  EC50: > 10 µM
[1]; HCT116 pretreated with GSK3b inhibitor, read-out: GSK3b inh pretreated_Viability ATP HCT116
  IC50: 0.0237 µM
RKO; basal; RKO; read-out: Basal_Viability ATP RKO
  IC50: 0.0128 µM
SW480; basal, SW480, read-out: Basal_Viability ATP SW480
  IC50: 0.0076 µM
INS-1E cells; S2 Table; module primary assay; 20 / 20.1 codes per legend; read-out: Insulin Secretion
  EC50: > 10 µM
HeLa cells; S2 Table, 20 = no response at highest concentration
  EC50: > 10 µM
DLD-1; basal, DLD-1, read-out: Basal_Viability ATP DLD-1
  IC50: > 20 µM
[2]; read-out: Wnt Pathway
  EC50: 0.372 µM
[3]; S2 Table; module primary assay; 20 = no response at highest concentration, 20.1 = inactive in single concentration testing; read-out: Anti-Angiogenesis
  IC50: > 10 µM

## COc1cc(NC(C)CCCN)c2ncccc2c1 (centres unmarked) [Primaquine]
HCT116; Homo sapiens, HCT-116, read-out: Basal_Viability ATP HCT116
  IC50: 1.88 µM
SNU-C1; [14]
  IC50: > 20 µM
NCI-H716 cells; Homo sapiens, NCI-H716, read-out: GLP 1 Secretion
  EC50: > 10 µM
[1]; Homo sapiens, HCT-116, read-out: GSK3b inh pretreated_Viability ATP HCT116
  IC50: > 20 µM
RKO; [15]
  IC50: > 20 µM
SW480; [16]
  IC50: > 20 µM
INS-1E cells; Rattus norvegicus, INS-1E, read-out: Insulin Secretion
  EC50: > 10 µM
HeLa cells; Homo sapiens
  EC50: > 10 µM
DLD-1; Homo sapiens, DLD-1, read-out: Basal_Viability ATP DLD-1
  IC50: > 20 µM
[2]; Mus musculus, C2C12, read-out: Wnt Pathway
  EC50: > 10 µM
Colo320; [17]
  IC50: > 20 µM
[3]; Homo sapiens, read-out: Anti-Angiogenesis
  IC50: > 10 µM

## CC(C)=CCNc1ncnc2c1ncn2[C@@H]1O[C@H](CO)[C@@H](O)[C@H]1O [Riboprine]
SNU-C1; [14]
  IC50: 9.01 µM
NCI-H716 cells; [18]
  EC50: > 10 µM
INS-1E cells; [19]
  EC50: > 10 µM
HeLa cells; Homo sapiens, IC50 / EC50
  EC50: > 10 µM
HT-29; [20]
  IC50: > 20 µM
[2]; [21]
  EC50: > 10 µM
[3]; Homo sapiens, IC50 / EC50; endothelial tube area, ADSC/ECFC co-culture; read-out: Anti-Angiogenesis
  IC50: 2.66 µM

## Nc1nc(Cl)nc2c1ncn2[C@@H]1O[C@H](CO)[C@@H](O)[C@@H]1F [clofarabine]
HCT116; Homo sapiens, HCT-116, basal, HCT116, read-out: Basal_Viability ATP HCT116
  IC50: 0.001 µM
SNU-C1; [4]
  IC50: > 20 µM
NCI-H716 cells; [5]
  EC50: > 10 µM
[1]; [22]
  IC50: 0.001 µM
RKO; [6]
  IC50: 0.001 µM
SW480; [7]
  IC50: 1.2 µM
INS-1E cells; [8]
  EC50: > 10 µM
HeLa cells; [9]
  EC50: > 10 µM
DLD-1; [10]
  IC50: 0.164 µM
HT-29; [11]
  IC50: > 20 µM
[2]; [12]
  EC50: > 10 µM
Colo320; [13]
  IC50: > 20 µM

## CC[C@H]1CN2CCc3cc(OC)c(OC)cc3[C@@H]2C[C@@H]1C[C@H]1NCCc2cc(OC)c(OC)cc21 [emetine]
HCT116; Homo sapiens, HCT-116, basal, read-out: Basal_Viability ATP HCT116
  IC50: 0.0615 µM
SNU-C1; Homo sapiens, SNU-C1, basal, read-out: Basal_Viability ATP SNU-C1
  IC50: 0.00228 µM
NCI-H716 cells; [18]
  EC50: > 10 µM
[1]; Homo sapiens, HCT-116, GSK3b inhibitor pretreated, read-out: GSK3b inh pretreated_Viability ATP HCT116
  IC50: 0.001 µM
RKO; Homo sapiens, RKO; read-out: Basal_Viability ATP RKO
  IC50: 0.00831 µM
SW480; Homo sapiens, SW480, basal, read-out: Basal_Viability ATP SW480
  IC50: 0.001 µM
INS-1E cells; [19]
  EC50: > 10 µM
HeLa cells; Homo sapiens, IC50 / EC50
  EC50: > 10 µM
DLD-1; Homo sapiens, DLD-1, basal, read-out: Basal_Viability ATP DLD-1
  IC50: 0.0116 µM
HT-29; [20]
  IC50: 0.0163 µM
[2]; [21]
  EC50: > 10 µM
Colo320; Homo sapiens, COLO 320; read-out: Basal_Viability ATP Colo 320
  IC50: 0.0221 µM

## CC(C)n1c(/C=C/C(O)CC(O)CC(=O)O)c(-c2ccc(F)cc2)c2ccccc21 (centres unmarked) [fluvastatin, reference compound]
SNU-C1; [23]
  IC50: > 20 µM
NCI-H716 cells; [24]
  EC50: > 10 µM
RKO; [15]
  IC50: 19.2 µM
RKO; [25]
  IC50: 19.2 µM
INS-1E cells; [26]
  EC50: > 10 µM
HeLa cells; [9]
  EC50: > 10 µM
DLD-1; [27]
  IC50: > 20 µM
HT-29; [28]
  IC50: > 20 µM
[2]; [29]
  EC50: > 10 µM
Colo320; [17]
  IC50: 13 µM
Colo320; [30]
  IC50: 13 µM

## CCC(C)(C)C(=O)O[C@H]1C[C@@H](C)C=C2C=C[C@H](C)[C@H](CC[C@@H]3C[C@@H](O)CC(=O)O3)[C@H]21 [simvastatin, reference compound]
HCT116; Homo sapiens, HCT-116, 72 h, read-out: HCT-116 viab. IC50, Table 2, basal, 72 h, Cell TiterGlo, non-adherent, 20 coded
  IC50: > 20 µM
SNU-C1; [23]
  IC50: > 20 µM
NCI-H716 cells; [5]
  EC50: 3.29 µM
NCI-H716 cells; [24]
  EC50: 3.3 µM
[1]; Homo sapiens, HCT-116, read-out: HCT-116 (GSK3β) viab. IC50, Table 2, GSK3β inhibitor LY2090314 20 nM, 72 h, Cell TiterGlo, 20 coded
  IC50: 4.7 µM
[1]; [22]
  IC50: 4.73 µM
RKO; [25]
  IC50: > 20 µM
SW480; Homo sapiens, SW480, 72 h, Table 2, 72 h, Cell TiterGlo, non-adherent, 20 coded, read-out: SW480 viab. IC50
  IC50: 5.9 µM
SW480; [16]
  IC50: 5.93 µM
INS-1E cells; [26]
  EC50: > 10 µM
HeLa cells; [9]
  EC50: > 10 µM
DLD-1; [27]
  IC50: > 20 µM
HT-29; [28]
  IC50: > 20 µM
[2]; [29]
  EC50: > 10 µM
Colo320; [30]
  IC50: 4.9 µM
Colo320; [13]
  IC50: 4.94 µM
